Values after ≈ are worked out from the molar mass of the structure shown. Read-outs that look alike come from different tables or passages of the source.
System: M. tuberculosis strains
Assay: Minimum Inhibitory Concentration (MIC) against M. tuberculosis strains, resazurin microtiter plate assay
Type: cell-based, Mycobacterium tuberculosis
Details: Mycobacterium tuberculosis
[1] = Table 1, C2 SAR with chlorophenyl, Middlebrook 7H9, 37° C. six days, resazurin fluorescence after 48 hours, read-out: MIC90
[2] = Table 3, C4 SAR, Middlebrook 7H9, 37° C. six days, resazurin fluorescence after 48 hours, read-out: MIC90
[3] = Table 1A, C2 SAR with fluorophenyl, Middlebrook 7H9, 37° C. six days, resazurin fluorescence after 48 hours, read-out: MIC90

Structure (SMILES) | MIC90 [1] | also measured
Cc1cc2nc(C(=O)N[C@@H]3CNC[C@@H]3F)cc(-c3ccnn3C)c2c(C)c1-c1ccncc1 (racemic) [Compound 105, N-[(3R,4S and 3S,4R)-4-fluoropyrrolidin-3-yl]-5,7-dimethyl-4-(2-methylpyrazol-3-yl)-6-(4-pyridyl)quinoline-2-carboxamide] | – | MIC90 (Table 6, Middlebrook 7H9, 37° C. six days, resazurin fluorescence after 48 hours, read-out: MIC90): 3 µM (≈ 1.33 µg/mL)
Cc1cc2nccc(-c3ccccc3Cl)c2c(C)c1-c1ccncc1 [Compound 1] | 5 µM (≈ 1.72 µg/mL) | –
Cc1cc2nc(CO)cc(-c3ccccc3Cl)c2c(C)c1-c1ccncc1 [Compound 3] | 3.75 µM (≈ 1.41 µg/mL) | –
Cc1cc2nc(C(C)(C)O)cc(-c3ccccc3Cl)c2c(C)c1-c1ccncc1 [Compound 4] | > 40 µM | –
Cc1cc2nc(CN(C)C)cc(-c3ccccc3Cl)c2c(C)c1-c1ccncc1 [Compound 5] | 10 µM (≈ 4.02 µg/mL) | –
Cc1cc2nc(CNCCO)cc(-c3ccccc3Cl)c2c(C)c1-c1ccncc1 [Compound 6] | 5 µM (≈ 2.09 µg/mL) | –
Cc1cc2nc(N)cc(-c3ccccc3Cl)c2c(C)c1-c1ccncc1 [Compound 7] | 10 µM (≈ 3.6 µg/mL) | –
CNc1cc(-c2ccccc2Cl)c2c(C)c(-c3ccncc3)c(C)cc2n1 [Compound 8] | 6 µM (≈ 2.24 µg/mL) | –
Cc1cc2nc(NCCO)cc(-c3ccccc3Cl)c2c(C)c1-c1ccncc1 [Compound 9] | 3 µM (≈ 1.21 µg/mL) | –
Cc1cc2nc(CCC(=O)N(C)C)cc(-c3ccccc3Cl)c2c(C)c1-c1ccncc1 [Compound 10] | 20 µM (≈ 8.88 µg/mL) | –
CNS(=O)(=O)c1cc(-c2ccccc2Cl)c2c(C)c(-c3ccncc3)c(C)cc2n1 [Compound 11] | 10 µM (≈ 4.38 µg/mL) | –
Cc1cc2nc(C(N)=O)cc(-c3ccccc3Cl)c2c(C)c1-c1ccncc1 [Compound 12] | 1.25 µM (≈ 0.485 µg/mL) | –
CNC(=O)c1cc(-c2ccccc2Cl)c2c(C)c(-c3ccncc3)c(C)cc2n1 [Compound 13] | 0.8 µM (≈ 0.322 µg/mL) | MIC90 [2]: 0.8 µM (≈ 0.322 µg/mL)
Cc1cc2nc(C(=O)NC3CC3)cc(-c3ccccc3Cl)c2c(C)c1-c1ccncc1 [Compound 14] | 1.9 µM (≈ 0.813 µg/mL) | –
Cc1cc2nc(C(=O)NCCO)cc(-c3ccccc3Cl)c2c(C)c1-c1ccncc1 [Compound 15] | 0.3 µM (≈ 0.13 µg/mL) | –
Cc1cc2nc(C(=O)NCCN(C)C)cc(-c3ccccc3Cl)c2c(C)c1-c1ccncc1 [Compound 16] | 0.3 µM (≈ 0.138 µg/mL) | –
Cc1cc2nc(C(=O)NO)cc(-c3ccccc3Cl)c2c(C)c1-c1ccncc1 [Compound 17] | 10 µM (≈ 4.04 µg/mL) | –
Cc1cc2nc(C(=O)N3CCCC3)cc(-c3ccccc3Cl)c2c(C)c1-c1ccncc1 [Compound 19] | 2.5 µM (≈ 1.1 µg/mL) | –

Structure (SMILES) | MIC90 [1] | also measured
Cc1cc2nc(C(=O)NS(=O)(=O)C3CC3)cc(-c3ccccc3Cl)c2c(C)c1-c1ccncc1 [Compound 20] | 2.5 µM (≈ 1.23 µg/mL) | –
Cc1cc2nc(C(=O)NCC3CCCS(=O)(=O)C3)cc(-c3ccccc3Cl)c2c(C)c1-c1ccncc1 (stereo not drawn) [Compound 21] | 0.8 µM (≈ 0.427 µg/mL) | –
Cc1cc2nc(C(=O)NCC(O)CO)cc(-c3ccccc3Cl)c2c(C)c1-c1ccncc1 (stereo not drawn) [Compound 22] | 0.4 µM (≈ 0.185 µg/mL) | –
Cc1cc2nc(C(=O)N[C@H]3CCCC[C@@H]3O)cc(-c3ccccc3Cl)c2c(C)c1-c1ccncc1 [Compound 23] | 1.25 µM (≈ 0.608 µg/mL) | –
Cc1cc2nc(C(=O)N[C@H]3CCC[C@@H]3O)cc(-c3ccccc3Cl)c2c(C)c1-c1ccncc1 [Compound 24] | 0.6 µM (≈ 0.283 µg/mL) | –
Cc1cc2nc(C(=O)NC3CCN(C)C3)cc(-c3ccccc3Cl)c2c(C)c1-c1ccncc1 (stereo not drawn) [Compound 25] | 1.25 µM (≈ 0.589 µg/mL) | –
Cc1cc2nc(C(=O)NC(C)CCO)cc(-c3ccccc3Cl)c2c(C)c1-c1ccncc1 (stereo not drawn) [Compound 26] | 1.25 µM (≈ 0.575 µg/mL) | –
Cc1cc2nc(C(=O)NCC(N)=O)cc(-c3ccccc3Cl)c2c(C)c1-c1ccncc1 [Compound 27] | 0.8 µM (≈ 0.356 µg/mL) | –
Cc1cc2nc(C(=O)NCC(C)(C)C(=O)O)cc(-c3ccccc3Cl)c2c(C)c1-c1ccncc1 [Compound 28] | 80 µM (≈ 39 µg/mL) | –
Cc1cc2nc(C(=O)N(C)C)cc(-c3ccccc3Cl)c2c(C)c1-c1ccncc1 [Compound 29] | 20 µM (≈ 8.32 µg/mL) | –
Cc1cc2nc(C(=O)N3CCNCC3)cc(-c3ccccc3Cl)c2c(C)c1-c1ccncc1 [Compound 30] | 10 µM (≈ 4.57 µg/mL) | –
Cc1cc2nc(C(=O)NCCF)cc(-c3ccccc3Cl)c2c(C)c1-c1ccncc1 [Compound 31] | – | MIC90: 1.25 µM (≈ 0.542 µg/mL)
Cc1cc2nc(C(=O)N3CCOCC3)cc(-c3ccccc3Cl)c2c(C)c1-c1ccncc1 [Compound 32] | 15 µM (≈ 6.87 µg/mL) | –
Cc1cc2nc(C(=O)NC3CCN(C)CC3)cc(-c3ccccc3Cl)c2c(C)c1-c1ccncc1 [Compound 33] | 0.8 µM (≈ 0.388 µg/mL) | –
Cc1cc2nc(C(=O)NC(CO)CO)cc(-c3ccccc3Cl)c2c(C)c1-c1ccncc1 [Compound 34] | 1.9 µM (≈ 0.878 µg/mL) | –
Cc1cc2nc(C(=O)NCC(C)(C)CO)cc(-c3ccccc3Cl)c2c(C)c1-c1ccncc1 [Compound 35] | 1.6 µM (≈ 0.758 µg/mL) | –
Cc1cc2nccc(-c3ccccc3F)c2c(C)c1-c1ccncc1 [Compound 36] | – | MIC90 [3]: 5 µM (≈ 1.64 µg/mL)
CNC(=O)c1cc(-c2ccccc2F)c2c(C)c(-c3ccncc3)c(C)cc2n1 [Compound 37] | – | MIC90 [3]: 1.25 µM (≈ 0.482 µg/mL); MIC90 [2]: 0.6 µM (≈ 0.231 µg/mL); MIC90 (Table 4A, C6 SAR with amide, Middlebrook 7H9, 37° C. six days, resazurin fluorescence after 48 hours, read-out: MIC90): 1.25 µM (≈ 0.482 µg/mL)

From US10745356B2, “Compositions and methods for treating tuberculosis” (priority 2015, dated 2020)
